Measurements: patent publication US4035381A, “Antibacterial agents” (priority 1976, dated 1977)
≈ marks a conversion by molar mass, not a printed value. Where “and” joins values, the source holds several entries; their conditions need not be identical. Equal entries are not always repeated. Structures can show the parent of a compound that is named as a salt. Where two headings read alike, the source gives them in different places.

Assays:
Str. pneumoniae A9585 = assay: Antibiotic activity in nutrient broth (MIC), Str. pneumoniae; format: cell-based; settings: Streptococcus pneumoniae, 45% AAB + 5% serum + 50% broth, 10^-3 dilution of overnight culture, Ex. 1/Ex. 2 figures recalculated on penicillin content
Description: (§1) ANTIBIOTIC ACTIVITY IN NUTRIENT BROTH
(§2) *45% AAB + 5% serum + 50% broth
(§3) **Dilution of overnight broth culture
(§4) +These figures were […] on the basis that there was only 60.61%
(§5) amoxicillin in the sample; in other words, the numerical values were
(§6) lowered, i.e. improved.
(§7) ----//These figures were recalculated on the basis that there was only

Str. pyogenes A9604 = assay: Antibiotic activity in nutrient broth (MIC), Str. pyogenes; format: cell-based; settings: Streptococcus pyogenes, 45% AAB + 5% serum + 50% broth, 10^-3 dilution of overnight culture, Ex. 1/Ex. 2 figures recalculated on penicillin content
Description: as §1, §2, §3, §4, §5, §6, §7

S. aureus Smith A9537 = assay: Antibiotic activity in nutrient broth (MIC), S. aureus Smith; format: cell-based; settings: Staphylococcus aureus, 10^-4 dilution, Ex. 1/Ex. 2 figures recalculated on penicillin content
Description: as §1, §3, §4, §5, §6, §7

S. aureus bx 1633 A9606 = assay: Antibiotic activity in nutrient broth (MIC), S. aureus bx 1633; format: cell-based; settings: Ex. 1/Ex. 2 figures recalculated on penicillin content
[1] = tested on: S. aureus Meth.-res. A15097; assay: Antibiotic activity in nutrient broth (MIC), S. aureus Meth.-res.; format: cell-based; settings: Staphylococcus aureus
Sal. enteritidis A9531 = assay: Antibiotic activity in nutrient broth (MIC), Sal. enteritidis; format: cell-based; settings: Salmonella enterica, 10^-4 dilution, Ex. 1/Ex. 2 figures recalculated on penicillin content
Description: as §1, §3, §4, §5, §6, §7

E. coli Juhl A15119 = assay: Antibiotic activity in nutrient broth (MIC), E. coli Juhl; format: cell-based; settings: Escherichia coli, JUHLA15119, 10^-4 dilution, Ex. 1/Ex. 2 figures recalculated on penicillin content
Description: as §1, §3, §4, §5, §6, §7

E. coli A9675 = assay: Antibiotic activity in nutrient broth (MIC), E. coli A9675; format: cell-based; settings: Escherichia coli, 10^-4 dilution, Ex. 1/Ex. 2 figures recalculated on penicillin content
Description: as §1, §3, §4, §5, §6, §7

K. pneumoniae A9977 = assay: Antibiotic activity in nutrient broth (MIC), K. pneumoniae A9977; format: cell-based; settings: Klebsiella pneumoniae, 10^-4 dilution, Ex. 1/Ex. 2 figures recalculated on penicillin content
Description: as §1, §3, §4, §5, §6, §7

K. pneumoniae A15130 = assay: Antibiotic activity in nutrient broth (MIC), K. pneumoniae A15130; format: cell-based; settings: Klebsiella pneumoniae
Pr. mirabilis A9900 = assay: Antibiotic activity in nutrient broth (MIC), Pr. mirabilis; format: cell-based; settings: Proteus mirabilis, 10^-4 dilution, Ex. 1/Ex. 2 figures recalculated on penicillin content
Description: as §1, §3, §4, §5, §6, §7

Pr. morganii A15153 = assay: Antibiotic activity in nutrient broth (MIC), Pr. morganii; format: cell-based; settings: Morganella morganii, 10^-4 dilution, Ex. 1/Ex. 2 figures recalculated on penicillin content
Ps. aeruginosa A9843A = assay: Antibiotic activity in nutrient broth (MIC), Ps. aeruginosa; format: cell-based; settings: Pseudomonas aeruginosa
Ser. marcescens A20019 = assay: Antibiotic activity in nutrient broth (MIC), Ser. marcescens; format: cell-based; settings: Serratia marcescens, 10^-4 dilution, Ex. 1/Ex. 2 figures recalculated on penicillin content
Description: as §1, §3, §4, §5, §6, §7

Ent. cloacae A9656 = assay: Antibiotic activity in nutrient broth (MIC), Ent. cloacae A9656; format: cell-based; settings: Enterobacter cloacae, 10^-4 dilution, Ex. 1/Ex. 2 figures recalculated on penicillin content
Ent. cloacae A9657 = assay: Antibiotic activity in nutrient broth (MIC), Ent. cloacae A9657; format: cell-based; settings: Enterobacter cloacae, 10^-4 dilution, Ex. 1/Ex. 2 figures recalculated on penicillin content
Ent. cloacae A9659 = assay: Antibiotic activity in nutrient broth (MIC), Ent. cloacae A9659; format: cell-based; settings: Enterobacter cloacae, 10^-4 dilution, Ex. 1/Ex. 2 figures recalculated on penicillin content
[2] = Stability of reconstituted aqueous solution; format: physicochemical
[3] = Hydrolysis to parent penicillin (paper strip and liquid chromatography); format: in vitro ADME; settings: 0.2 mg./ml., pH 6.5-7.0 buffer or serum; for hydrolysis in water to parent penicillin: room temperature and 37° C.
Bioassay = settings: theory 730 (Ex. 1) / 596 (Ex. 2) mcg./mg.
[4] = Oral and intramuscular rat blood levels; format: in vivo
[5] = In vitro antibacterial spectrum / activity; format: cell-based; settings: vs amoxicillin (Ex. 1) or ampicillin (Ex. 2)
Hygroscopicity = format: physicochemical; settings: solid product
[6] = Mouse blood levels after oral administration; settings: 100 mg./kg., tested twice, average of 6 mice each
[7] = Mouse blood levels after intramuscular administration; settings: 10 mg./kg., average of six animals, unit assumed
[8] = cited from earlier work
[9] = prior-art salt; cited from earlier work
[10] = in vivo, iv; cited from earlier work
[11] = SMITHA9537, nutrient broth, no serum
[12] = Staphylococcus aureus, BX1633A9606, 10^-3 dilution, read-out: MIC
[13] = 3.5 hours, in µg/mL (unit assumed)

Row | Compound | MIC (Str. pneumoniae A9585) [ng/mL] | MIC (Str. pyogenes A9604) [ng/mL] | MIC (S. aureus Smith A9537; SMITHA9537, +50% serum) [µg/mL] | MIC (S. aureus Smith A9537; [11]) [µg/mL] | MIC (Sal. enteritidis A9531) [µg/mL] | MIC (E. coli Juhl A15119) [µg/mL] | MIC (E. coli A9675) [µg/mL] | MIC (K. pneumoniae A9977) [µg/mL] | MIC (Pr. mirabilis A9900) [µg/mL] | MIC (Ser. marcescens A20019) [µg/mL] | MIC (Ent. cloacae A9657) [µg/mL] | MIC (Ent. cloacae A9659) [µg/mL] | Mouse blood level ([7]; 0.25 hours) [µg/mL] | Mouse blood level ([7]; 0.5 hours) [µg/mL] | Mouse blood level ([7]; 1 hour) [µg/mL] | Mouse blood level ([7]; 1.5 hours) [µg/mL] | other results
1 | CC1(C)S[C@@H]2[C@H](N3C(=O)[C@@H](c4ccc(O)cc4)NC3c3ccc(S(=O)(=O)O)o3)C(=O)N2[C@H]1C(=O)O (mixture of isomers) [Example 1, Disodium 6-[D(-)2-(±)5-Sulfo-2-furyl-5-oxo-4-p-hydroxyphenyl-1-imidazolidinyl]penicillanate] | 0.5 | 0.5 | 0.13 | 0.06 | 0.13 | 1 | 16 | 0.13 | 0.25 | 32 | 63 | 63 | 7.3 | 5.4 | 2.1 | 1.1 | MIC (S. aureus bx 1633 A9606; 10^-2 dilution): > 125 µg/mL; MIC (S. aureus bx 1633 A9606; [12]): > 125 µg/mL; MIC [1]: > 125 µg/mL; MIC (K. pneumoniae A15130): 125 µg/mL; MIC (Pr. morganii A15153): > 125 µg/mL; MIC (Ps. aeruginosa A9843A): > 125 µg/mL; MIC (Ent. cloacae A9656): > 125 µg/mL; stable at room temperature (diluted solution) ([2]; 10 to 20 mg./ml. of activity): at least 24 hours; hydrolysis in water to parent penicillin [3]: rapidly hydrolyzes in water to amoxicillin; Bioassay (Bioassay): 696 µg/mg; Intramuscular rat blood levels compared with parent penicillin [4]: substantially equal to those of amoxicillin; Oral rat blood levels compared with parent penicillin [4]: substantially equal to those of amoxicillin; in vitro antibacterial spectrum compared with parent penicillin [5]: substantially equivalent to that of amoxicillin; hygroscopicity (Hygroscopicity): nonhygroscopic; Blood level ([6]; 0.5 hours, listed as Ex. 1, in µg/mL (unit assumed)): 6.3 and 9.5; Blood level ([6]; 1 hour, listed as Ex. 1, in µg/mL (unit assumed)): 7.2 and 10.4; Blood level ([6]; 2 hours, listed as Ex. 1, in µg/mL (unit assumed)): 3.9 and 4.9; Blood level [6, 13]: 1.1
2 | CC1(C)S[C@@H]2[C@H](N3C(=O)[C@@H](c4ccccc4)NC3c3ccc(S(=O)(=O)O)o3)C(=O)N2[C@H]1C(=O)O (mixture of isomers) [Example 2, Disodium 6-[D(-)2-(±)5-Sulfo-2-furyl-5-oxo-4-phenyl-1-imidazolidinyl]penicillanate] | 4 | 4 | 0.06 | 0.06 | 0.013 | 2 | 16 | 0.5 | 0.13 | 32 | 32 | 63 | 6.3 | 3.7 | 1.3 | 0.6 | MIC (S. aureus bx 1633 A9606; 10^-2 dilution): > 125 µg/mL; MIC (S. aureus bx 1633 A9606; [12]): > 125 µg/mL; MIC [1]: > 125 µg/mL; MIC (K. pneumoniae A15130; nutrient broth, 10^-4 dilution, Ex. 1/Ex. 2 figures recalculated on penicillin content, read-out: MIC): 63 µg/mL; MIC (Pr. morganii A15153): > 125 µg/mL; MIC (Ps. aeruginosa A9843A): > 125 µg/mL; MIC (Ent. cloacae A9656): > 125 µg/mL; stable at room temperature (reconstituted aqueous solution) ([2]; 250 mg./ml. of activity): at least 24 hours; hydrolysis in water to parent penicillin [3]: rapidly hydrolyzes in water; hydrolyzed at 0 time by liquid chromatography ([3]; to ampicillin, 0 time): 60-70%; Bioassay (Bioassay): 578 µg/mg; Intramuscular rat blood levels compared with parent penicillin [4]: substantially equal to those of ampicillin; Oral rat blood levels compared with parent penicillin [4]: substantially equal to those of ampicillin; in vitro antibacterial spectrum compared with parent penicillin [5]: substantially equivalent to that of ampicillin; hygroscopicity (Hygroscopicity): non-hygroscopic; Blood level ([6]; 1 hour, listed as Ex. 2, in µg/mL (unit assumed)): 2.8 and 5.2; Blood level ([6]; 2 hours, listed as Ex. 2, in µg/mL (unit assumed)): 1.4 and 2.2; Blood level ([6]; 3.5 hours, listed as Ex. 2, in µg/mL (unit assumed)): 0.4 and 0.6
3 | CC1(C)S[C@@H]2[C@H](NC(=O)[C@H](N)c3ccc(O)cc3)C(=O)N2[C@H]1C(=O)O [Amoxicillin, D(-)-α-amino-p-hydroxybenzylpenicillin, reference compound] | ≤ 2 | ≤ 2 | 0.008 (≈ 0.0219 µM) | 0.008 (≈ 0.0219 µM) | 0.008 (≈ 0.0219 µM) | 0.5 (≈ 1.37 µM) | 8 (≈ 21.9 µM) | – | ≤ 0.016 | 16 (≈ 43.8 µM) | 63 (≈ 172 µM) | – | 7.7 | 4.3 | 1.9 | 0.6 | Blood level ([6]; 0.5 hours, in µg/mL (unit assumed)): 7.9 and 13.9; Blood level ([6]; 1 hour, in µg/mL (unit assumed)): 7.4 and 12.4; Blood level ([6]; 2 hours, in µg/mL (unit assumed)): 4.6 and 5.8; Blood level [6, 13]: 1.5 and 0.8
4 | CC1(C)S[C@@H]2[C@H](NC(=O)[C@H](N)c3ccccc3)C(=O)N2[C@H]1C(=O)O [Ampicillin, D(-)-α-aminobenzyl-penicillin, reference compound] | 8 | 8 | 0.13 (≈ 0.372 µM) | 0.13 (≈ 0.372 µM) | 0.013 (≈ 0.0372 µM) | 2 (≈ 5.72 µM) | 16 (≈ 45.8 µM) | 0.25 (≈ 0.715 µM) | 0.25 (≈ 0.715 µM) | 32 (≈ 91.6 µM) | 32 (≈ 91.6 µM) | 63 (≈ 180 µM) | – | – | – | – | –
5 | CC1(C)S[C@@H]2[C@H](N3C(=O)[C@@H](c4ccccc4)NC3(C)C)C(=O)N2[C@H]1C(=O)O [hetacillin] | – | – | – | – | – | – | – | – | – | – | – | – | – | – | – | – | stability in aqueous solution compared with parent penicillins ([8]; as sodium salts): somewhat more stable
6 | CC1(C)S[C@@H]2[C@H](NC(=O)[C@H](N)c3ccc(O)cc3)C(=O)N2[C@H]1C(=O)O [potassium salt] | – | – | – | – | – | – | – | – | – | – | – | – | – | – | – | – | stable (reconstituted with water) ([8]; 250 mg./ml., room temperature): 15 min; precipitation from solution on standing ([8]; reconstituted with water, 250 mg./ml.): precipitates out of solution on standing
7 | CC1(C)S[C@@H]2[C@H](NC(=O)[C@H](N)c3ccccc3)C(=O)N2[C@H]1C(=O)O [sodium salt of ampicillin] | – | – | – | – | – | – | – | – | – | – | – | – | – | – | – | – | shelf-life of aqueous solution ([8]; room temperature, reconstituted at 250 mg./ml.): about one; hygroscopicity [9]: hygroscopic; irritation on injection [10]: somewhat irritating on injection
